From paper PMC4568483, “A spheroid toxicity assay using magnetic 3D bioprinting and real-time mobile device-based imaging” (Scientific Reports, 2015)
Like-named read-outs stand apart in the source and are kept apart here.

Tests used:
[1] = system: 3T3 spheroids; assay: MTT assay on 3T3 spheroids; assay type: cell-based, murine; conditions: 3D spheroids
From the text: Figure S7: Dose response curves of 3T3 spheroids exposed to ATRA, SDS, and penicillin-G as measured by the MTT assay.

[2] = system: 3T3 spheroids; assay: Spheroid toxicity assay (contraction of magnetically 3D bioprinted spheroids, mobile device imaging); assay type: cell-based, murine
Experimental: The spheroid toxicity assay was designed to rapidly assess toxicity in M3DB spheroids (Fig. 1A)[26]. At 70–80% confluence, 3T3s grown in 2D were statically incubated overnight with magnetic nanoparticles, allowing for nanoparticle association with the cells (NanoShuttle, Nano3D Biosciences, Houston, TX) at a concentration of 1 μL/1 × 10^4 cells (50 pg/cell)[18][25]. Cells were magnetized by the electrostatic and non-specific attachment of nanoparticles to the cell membrane via poly-L-lysine. Once attached onto the membrane, the nanoparticles remain for 7–8 d before releasing into the ECM[18]. If internalized, the nanoparticles will exit the cell still attached to the membrane.
After magnetization, the cells were enzymatically detached with trypsin, resuspended in media, then distributed into ultra-low attachment 6-well plates (Corning, Tewksbury, MA) at a concentration of 3.2 × 10^6 cells in 2 mL (1.6 × 10^6 cells/mL). A magnetic drive of 6 neodymium magnets (Nano3D Biosciences) was placed atop the well plate to levitate the cells in 3D (500 G, 30 pN, see Supplemental Fig. S12). The purpose of this levitation step was to induce ECM formation, as was shown previously with primary human pulmonary fibroblasts and tracheal smooth muscle cells that extruded laminin after 1 h of levitation. […] After 1 h of levitation, the levitated cultures were broken up and resuspended in media using pipette action to yield a suspension of magnetized cells and ECM, which was distributed into an ultra-low attachment 96-well plate (Corning) at a concentration of 7.5 × 10^4 cells/well (n = 3 per compound concentration). Immediately afterwards, the plate was placed atop a magnetic drive of 96 neodymium magnets (0.0625” OD, Nano3D Biosciences) to attract the cells (120 G, 10 pN, see Supplemental Fig. S12) and ECM to the bottom of the well to form a spheroid. These spheroids were printed on the magnets for 15 min. At this point, the cells within the spheroids were connected but loose, and their competency could be empirically assessed by their ability to stay together when the magnet was removed. Towards the end of the printing time, compounds were added to the wells achieve their final concentrations. The plate was then removed from the magnet and the spheroids were allowed to contract.
M3DB spheroids and their contraction were imaged using a mobile device-based imaging system (Fig. 1B)[26]. After printing, the plate of spheroids were placed atop an acrylic imaging apparatus with a mobile device (iPod touch 5th generation, 16 GB, Apple Computer, Cupertino, CA) below the plate facing upwards, and a light source (LightPad A920, Artograph, Delano, MN) above the plate to illuminate the images. The mobile device was programmed using an application (Experimental Assistant, Nano3D Biosciences) to image the plate every 4 min for a period of 10 h. When the spheroids had finished contracting, the images were transferred to a computer where they were analyzed using a custom image analysis code written in Python that processed thousands of images in hours. The area of the spheroid was measured over time, as well as the rate of contraction for the first 150 min using a linear least-squares fit (OriginPro, OriginLab, Northampton, MA). The rates of contraction served as the endpoint for the assay, and were plotted against compound concentration and fit to a Boltzmann sigmoidal function (OriginPro) from which the IC50’s were determined.

[3] = system: 3T3s in 2D; assay: MTT assay on 2D monolayers, viability after 72 h; assay type: cell-based, murine; conditions: for IC50 / MTT IC50: 2D, viability at 72 h; for Effect on viability in 2D: MTT
Experimental: The MTT assay was performed to compare its endpoint, viability of 3T3s in 2D after 72 h, with spheroid contraction. 3T3s were seeded on 96-well plates (n = 3 per compound concentration) at a concentration of 2.5 × 10^4 cells/well to adhere overnight. The following day, compounds were added to each well at the desired concentration. After 72 hours of incubation, the media was replaced with 10% MTT (Sigma-Aldrich) in media. The cells were incubated with the reagent for at least 4 hours at 37 °C. Following incubation, the media was aspirated and the remaining formazan was dissolved in acidified isopropanol (0.1 N HCl). The absorbance of the solution was then read at 570 nm in a spectrophotometer (SpectraMax Plus 384, Molecular Devices, Sunnyvale, CA) with background subtraction at 690 nm. Dose-response curves were plotted and fit to a Boltzmann sigmoidal function (OriginPro) similarly to the spheroid toxicity assay.

[4] = system: 3T3s; conditions: 2D, read-out: Literature IC50, cited from earlier work
[5] = system: 3T3 spheroids; assay: Gene expression profiling (mRNA sequencing) of spheroids with and without ATRA; conditions: 41.6 μM ATRA
[6] = 3D, endpoint rate of contraction over 150 min
[7] = ref NIEHS Registry of Cytotoxicity [35]
[8] = Mus musculus, 2.5 h, 3D, endpoint rate of contraction over 150 min

CC1(C)S[C@@H]2[C@H](NC(=O)Cc3ccccc3)C(=O)N2[C@H]1C(=O)O [Penicillin-G, penicillin-G]
Dose response of spheroid viability by MTT [1]: significant dose-dependent response
Spheroid Assay IC50 [2, 6]: n.s.
Effect on spheroid contraction ([2]; rate of contraction over first 150 min): no effect on spheroid contraction
IC50 ([3]; Mus musculus): 1770 µM
IC50 [4, 7]: 5730 µM

O=c1[nH]cc(F)c(=O)[nH]1 [5′-fluorouracil]
IC50 [2, 6]: 253 µM
MTT IC50 [3]: n.s.
Effect on viability in 2D ([3]; 72 h): no significant effect
IC50 [4, 7]: 2.6 µM

CCCCCCCCCCCCOS(=O)(=O)[O-].[Na+] [SDS, sodium dodecyl sulfate]
Dose response of spheroid viability by MTT [1]: significant dose-dependent response
IC50 [2, 6]: 282 µM
IC50 [3]: 167 µM
IC50 [4, 7]: 270 µM

C=C[C@@]1(C)CC(=O)[C@]2(O)[C@@]3(C)[C@@H](O)CCC(C)(C)[C@@H]3[C@H](O)[C@H](OC(C)=O)[C@@]2(C)O1 [Forskolin, forskolin]
IC50 [2, 8]: 4.7 µM
IC50 ([3]; Mus musculus): 0.6 µM
IC50 ([4]; ref Varrault et al., 1992 [46]): 26 µM

COc1cccc2c1C(=O)c1c(O)c3c(c(O)c1C2=O)C[C@@](O)(C(=O)CO)C[C@@H]3O[C@H]1C[C@H](N)[C@H](O)[C@H](C)O1 [Doxorubicin, doxorubicin]
IC50 [2, 8]: 46.7 µM
IC50 ([3]; Mus musculus): 12.7 µM
IC50 [4, 7]: 0.33 µM

C[C@@H]1C[C@H]2[C@@H]3CCC4=CC(=O)C=C[C@]4(C)[C@@]3(F)[C@@H](O)C[C@]2(C)[C@@]1(O)C(=O)CO [Dexamethasone, dexamethasone]
IC50 [2, 8]: 84.6 µM
MTT IC50 [3]: n.s.
Effect on viability in 2D ([3]; 72 h): no significant effect
IC50 ([4]; ref Nakada et al., 1987 [45]): 0.00277 µM

CC1=C(/C=C/C(C)=C/C=C/C(C)=C/C(=O)O)C(C)(C)CCC1 [ATRA, all-trans retinoic acid]
Dose response of spheroid viability by MTT [1]: significant dose-dependent response
Concentration at and above which spheroid contraction was affected [2]: ≥ 41.6 µM
IC50 [2, 8]: 82.8 µM
Fate of 3T3s in 2D on exposure ([3]; 2D culture, 41.6 μM ATRA, 72 h): lysed before 72 h
IC50 ([3]; Mus musculus): 24.7 µM
IC50 ([4]; ref Seiler et al., 2011 [16]): 20 µM
Expression of genes for apoptotic inhibitors (BCL2, BIRC2, BIRC3) [5]: downregulation
Expression of the gene for p53 [5]: upregulation
Number of genes downregulated as a function of exposure [5]: 40 genes
Number of genes expressed differently between exposed and unexposed spheroids ([5]; 72 h exposure, 364 genes profiled): 99 genes
